In brackets after ≈: the same amount, converted by molar mass.
Tests used:
RAW264.7 [1] = assay: Antiinflammatory activity in mouse RAW264.7 cells assessed as inhibition of LPS induced iNOS-dependent nitric oxide production at 10 ug/ml after 24 hrs by Griess assay relative to control; type: functional; settings: RAW264.7, 24 h
RAW264.7 [2] = assay: Antiinflammatory activity in mouse RAW264.7 cells assessed as inhibition of LPS induced iNOS-dependent nitric oxide production at 1.25 ug/ml after 24 hrs by Griess assay relative to control; type: functional; settings: RAW264.7, 24 h
[3] = Cytotoxicity against LPS-stimulated mouse RAW264.7 cells assessed as cell viability at 5 ug/ml after 24 hrs by MTT assay relative to control; type: cell-based; settings: LPS-stimulated RAW264.7 cells, read-out: Activity
RAW264.7 [4] = assay: Antiinflammatory activity in mouse RAW264.7 cells assessed as inhibition of LPS induced iNOS-dependent nitric oxide production at 5 ug/ml after 24 hrs by Griess assay relative to control; type: functional; settings: RAW264.7, 24 h
[5] = Cytotoxicity against LPS-stimulated mouse RAW264.7 cells assessed as cell viability at 10 ug/ml after 24 hrs by MTT assay relative to control; type: cell-based; settings: LPS-stimulated RAW264.7 cells, read-out: Activity
RAW264.7 [6] = assay: Antiinflammatory activity in mouse RAW264.7 cells assessed as inhibition of LPS induced iNOS-dependent nitric oxide production after 24 hrs by Griess assay; type: functional, cell-based; settings: RAW264.7, 24 h
[7] = Cytotoxicity against LPS-stimulated mouse RAW264.7 cells assessed as cell viability at 2.5 ug/ml after 24 hrs by MTT assay relative to control; type: cell-based; settings: LPS-stimulated RAW264.7 cells, read-out: Activity
[8] = Cytotoxicity against LPS-stimulated mouse RAW264.7 cells assessed as cell viability at 1.25 ug/ml after 24 hrs by MTT assay relative to control; type: cell-based; settings: LPS-stimulated RAW264.7 cells, read-out: Activity
RAW264.7 [9] = assay: Antiinflammatory activity in mouse RAW264.7 cells assessed as inhibition of LPS induced iNOS-dependent nitric oxide production at 2.5 ug/ml after 24 hrs by Griess assay relative to control; type: functional; settings: RAW264.7, 24 h

| Compound | IC50 (RAW264.7 [6]) | inhibition at 10 µg/mL (RAW264.7 [1]) | inhibition at 1.25 µg/mL (RAW264.7 [2]) | viability at 24 h, 5 ug/ml [3] | inhibition at 5 µg/mL (RAW264.7 [4]) | viability at 24 h, 10 ug/ml [5] | viability at 24 h, 2.5 ug/ml [7] | viability at 24 h, 1.25 ug/ml [8] | inhibition at 2.5 µg/mL (RAW264.7 [9]) |
| --- | --- | --- | --- | --- | --- | --- | --- | --- | --- |
| COc1cc(CCCc2ccc3c(c2)OCO3)ccc1O | 3.64 µg/mL (≈ 12.7 µM) | 78.3% | 42.4% | 93.3% | 52.7% | 58.2% | 96.2% | 98.5% | 46.8% |
| COc1ccc(/C=C/C(=O)c2ccc(OC)c(OC)c2)cc1OC | > 10 µg/mL | 3.3% | 0.2% | 81.3% | 2% | 60.4% | 91.9% | 94% | 1.7% |
| COc1ccc(/C=C/C(=O)c2ccc(OC)c(OC)c2)cc1 | 2.43 µg/mL (≈ 8.15 µM) | 85.5% | 5.1% | 78.9% | 52.1% | 73.9% | 93.1% | 97.2% | 52% |
| O=C(/C=C/c1ccc2c(c1)OCO2)c1ccc(O)cc1 | 9.56 µg/mL (≈ 35.6 µM) | 52.5% | 4.9% | 88.5% | 14.1% | 68% | 95.2% | 99.2% | 1.1% |
| COc1ccc(C(=O)/C=C/c2ccc(OC)c(OC)c2OC)c(O)c1 | > 10 µg/mL | 0.1% | 9.1% | 72.5% | 4.1% | 75.3% | 96.6% | 98.5% | 9.7% |
| COc1cc(C(=O)/C=C/c2ccc3c(c2)OCO3)ccc1O | 6.3 µg/mL (≈ 21.1 µM) | 51.8% | 5.3% | 81.1% | 49.1% | 72.7% | 85.3% | 100% | 0.6% |
| O=C(CCc1ccc2c(c1)OCO2)c1ccc(O)cc1 | 8.72 µg/mL (≈ 32.3 µM) | 56.2% | 2% | 87.3% | 24.8% | 82.9% | 89% | 95.1% | 19.8% |
| COc1ccc(C(=O)/C=C/c2ccc3c(c2)OCO3)c(O)c1 | 1.25 µg/mL (≈ 4.19 µM) | 8.6% | 50.2% | 75.2% | 3% | 72% | 91.7% | 96.4% | 5.7% |
| COc1ccc(/C=C/C(=O)c2ccc(OC)c(OC)c2)cc1O | > 10 µg/mL | 9.8% | 1.1% | 73% | 2.6% | 73.5% | 82.1% | 91.4% | 1.8% |
| COc1ccc(CCC(=O)c2ccc(OC)c(OC)c2)cc1OC | > 10 µg/mL | 31.1% | 5.9% | 96.2% | 13.8% | 95.3% | 98% | 99.6% | 8.2% |
| COc1ccc(C(=O)CCc2ccc(OC)c(OC)c2)c(O)c1 | 7.86 µg/mL (≈ 24.8 µM) | 56.2% | 18.4% | 75.2% | 38.3% | 67.5% | 89% | 91.8% | 23.9% |
| COc1ccc(C(=O)/C=C/c2ccc(OC)cc2OC)c(O)c1 | > 10 µg/mL | 2.8% | 3.4% | 87.3% | 12.2% | 68% | 90.3% | 98.7% | 7.4% |
| COc1cccc(/C=C/C(=O)c2cccc(O)c2)c1OC | 4.83 µg/mL (≈ 17 µM) | 55.1% | 1.8% | 57.8% | 52.4% | 32.8% | 70.8% | 99.6% | 3% |
| COc1cc(C(=O)/C=C/c2cccc(OC)c2OC)ccc1O | > 10 µg/mL | 46.2% | 3.9% | 67.8% | 3.2% | 63.7% | 94% | 97.5% | 3.1% |
| COc1ccc(OC)c(CCCc2cccc(O)c2)c1 | > 10 µg/mL | 38.9% | 1.5% | 93.5% | 36.8% | 92.2% | 98.2% | 101% | 19.9% |
| COc1ccc(C(=O)/C=C/c2cccc(OC)c2OC)c(O)c1 | 2.35 µg/mL (≈ 7.48 µM) | 59.7% | 1.3% | 69.7% | 55.3% | 60.3% | 72.9% | 94.2% | 54.7% |

Continued, in another order:

| IC50 (RAW264.7 [6]) | Compound | inhibition at 10 µg/mL (RAW264.7 [1]) | inhibition at 1.25 µg/mL (RAW264.7 [2]) | viability at 24 h, 5 ug/ml [3] | inhibition at 5 µg/mL (RAW264.7 [4]) | viability at 24 h, 10 ug/ml [5] | viability at 24 h, 2.5 ug/ml [7] | viability at 24 h, 1.25 ug/ml [8] | inhibition at 2.5 µg/mL (RAW264.7 [9]) |
| --- | --- | --- | --- | --- | --- | --- | --- | --- | --- |
| 6.58 µg/mL (≈ 23 µM) | COc1ccc(CCC(=O)c2cccc(O)c2)cc1OC | 55.8% | 5.4% | 98% | 46.2% | 97.9% | 98.9% | 101% | 18.6% |
| > 10 µg/mL | COc1ccc(CCC(=O)c2ccc(OC)c(OC)c2)cc1O | 31% | 2.9% | 91.8% | 17.3% | 83.9% | 92.1% | 95.6% | 6.3% |
| > 10 µg/mL | COc1ccc(CCC(=O)c2cccc(O)c2)cc1 | 40.5% | 5.1% | 94.5% | 20.1% | 86.3% | 97.1% | 97.5% | 11% |
| 5.08 µg/mL (≈ 18.7 µM) | COc1ccc(CCCc2ccc(O)c(OC)c2)cc1 | 89.8% | 35.9% | 96.4% | 49% | 66.3% | 97.8% | 99.2% | 42.9% |
| 9.44 µg/mL (≈ 31.4 µM) | COc1cc(C(=O)CCc2ccc3c(c2)OCO3)ccc1O | 51.6% | 4.2% | 92% | 32.2% | 89% | 94.5% | 95.3% | 5.5% |
| > 10 µg/mL | COc1ccc(CCC(=O)c2ccc(OC)cc2O)cc1 | 25.9% | 7.8% | 92.3% | 14.5% | 88% | 94.5% | 95.1% | 10.5% |
| 9.81 µg/mL (≈ 34.3 µM) | COc1ccc(CCC(=O)c2ccc(O)c(OC)c2)cc1 | 50.7% | 2.9% | 89.8% | 26.1% | 86.5% | 92% | 90% | 12.2% |

Reference: ChEMBL document CHEMBL4004877, “Synthesis and biological evaluation of chalcone, dihydrochalcone, and 1,3-diarylpropane analogs as anti-inflammatory agents” (Bioorg Med Chem Lett, 2017)
